Assay results from patent publication US10857121B2, “Use of malononitrile compounds for protecting animals from parasites” (MERIAL INC., priority 2014, dated 2020).

What was measured:
[1] = tested on: Haematobia irritans; test: In vivo efficacy against Haematobia irritans in cattle, topical pour-on; details: for % Efficacy vs. Haematobia irritans at 5 h: 5 h after infestation; for % Efficacy vs. Haematobia irritans at 24 h: 24 h after infestation
Protocol: A representative compound of the invention (II-35) was evaluated for efficacy against 20 Haematobia irritans in cattle when applied topically. Four treatment groups and one untreated control group containing four animals each were formed. Treatment Group 1 was an untreated control and Treatment Group 5 was a positive control group treated with a pour-on product containing 5% (w/v) cypermethrin (Cypermil Pour-on). The animals in Treatment Groups 2, 3 and 4 were treated with a pour-on composition containing compound (II-35) to deliver doses of 20 mg/kg, 10 mg/kg and 5 mg/kg body weight, respectively. The pour-on formulations comprised a mixture of 20% (w/v), 10% (w/v) and 5% (w/v) of the active dissolved in a carrier comprising 50% (v/v)N-methylpyrrolidone, 5% (v/v) dimethyl isosorbide and qs with Miglyol® 840. All animals were infested with approximately 200 Haematobia irritans flies on Days 1, 7, 14 and 21. As the source of flies was natural and the amount of flies decreased, the infestations On Days 28 and 35 animals were with approximately 100 horn flies due to a lack of flies. Additionally, Treatment Groups 3 and 5 were not infested on Day 35, due to the lack of flies. The flies were counted and recorded five hours following infestation and on the following day (at 24 h). The counts done on Day 2 were at 48 hours after treatment.
The % efficacy (% reduction) of the each treatment group compared with the untreated control group is shown in Tables 2 and 3 below and in FIG. 1.

[2] = tested on: Haematobia irritans; test: as above; details: for % Efficacy vs. Haematobia irritans at 5 h: 5 h after infestation, Day 13

## C#Cc1ccc(CC(C#N)(C#N)c2ccc(F)cc2)cc1 [II-35]
[1]; pour-on 5 mg/kg (Group 4), Day 1
  % Efficacy vs. Haematobia irritans at 5 h: 99.5%
[1]; pour-on 5 mg/kg (Group 4), Day 7
  % Efficacy vs. Haematobia irritans at 5 h: 98.3%
[1]; pour-on 5 mg/kg (Group 4), Day 13
  % Efficacy vs. Haematobia irritans at 5 h: 93.2%
[1]; pour-on 5 mg/kg (Group 4), Day 21
  % Efficacy vs. Haematobia irritans at 5 h: 80.0%
[1]; pour-on 5 mg/kg (Group 4), Day 28
  % Efficacy vs. Haematobia irritans at 5 h: 64.1%
[1]; pour-on 5 mg/kg (Group 4), Day 35
  % Efficacy vs. Haematobia irritans at 5 h: 51.5%
[1]; pour-on 5 mg/kg (Group 4), Day 2
  % Efficacy vs. Haematobia irritans at 24 h: 100.0%
[1]; pour-on 5 mg/kg (Group 4), Day 8
  % Efficacy vs. Haematobia irritans at 24 h: 99.7%
[1]; pour-on 5 mg/kg (Group 4), Day 14
  % Efficacy vs. Haematobia irritans at 24 h: 100.0%
[1]; pour-on 5 mg/kg (Group 4), Day 22
  % Efficacy vs. Haematobia irritans at 24 h: 93.5%
[1]; pour-on 5 mg/kg (Group 4), Day 29
  % Efficacy vs. Haematobia irritans at 24 h: 95.5%
[1]; pour-on 5 mg/kg (Group 4), Day 36
  % Efficacy vs. Haematobia irritans at 24 h: 88.1%
[1]; pour-on 5 mg/kg (Group 4), until Day 13, after 5 hours post infestation
  efficacy vs. Haematobia irritans: above 93%
[1]; pour-on 5 mg/kg (Group 4), until Day 29, after 24 hours post infestation
  efficacy vs. Haematobia irritans: above 93%
[1]; pour-on 10 mg/kg (Group 3), Day 1
  % Efficacy vs. Haematobia irritans at 5 h: 98.9%
[1]; pour-on 10 mg/kg (Group 3), Day 7
  % Efficacy vs. Haematobia irritans at 5 h: 98.2%
[1]; pour-on 10 mg/kg (Group 3), Day 21
  % Efficacy vs. Haematobia irritans at 5 h: 68.3%
[1]; pour-on 10 mg/kg (Group 3), Day 28
  % Efficacy vs. Haematobia irritans at 5 h: 65.6%
[1]; pour-on 10 mg/kg (Group 3), Day 2
  % Efficacy vs. Haematobia irritans at 24 h: 100.0%
[1]; pour-on 10 mg/kg (Group 3), Day 8
  % Efficacy vs. Haematobia irritans at 24 h: 100.0%
[1]; pour-on 10 mg/kg (Group 3), Day 14
  % Efficacy vs. Haematobia irritans at 24 h: 100.0%
[1]; pour-on 10 mg/kg (Group 3), Day 22
  % Efficacy vs. Haematobia irritans at 24 h: 93.1%
[1]; pour-on 10 mg/kg (Group 3), Day 29
  % Efficacy vs. Haematobia irritans at 24 h: 69.2%
[1]; pour-on 10 mg/kg (Group 3), until Day 22, after 24 hours post infestation
  efficacy vs. Haematobia irritans: above 93%
[1]; pour-on 20 mg/kg (Group 2), Day 1
  % Efficacy vs. Haematobia irritans at 5 h: 97.8%
[1]; pour-on 20 mg/kg (Group 2), Day 7
  % Efficacy vs. Haematobia irritans at 5 h: 99.2%
[1]; pour-on 20 mg/kg (Group 2), Day 21
  % Efficacy vs. Haematobia irritans at 5 h: 86.6%
[1]; pour-on 20 mg/kg (Group 2), Day 28
  % Efficacy vs. Haematobia irritans at 5 h: 85.0%
[1]; pour-on 20 mg/kg (Group 2), Day 35
  % Efficacy vs. Haematobia irritans at 5 h: 65.8%
[1]; pour-on 20 mg/kg (Group 2), Day 2
  % Efficacy vs. Haematobia irritans at 24 h: 100.0%
[1]; pour-on 20 mg/kg (Group 2), Day 8
  % Efficacy vs. Haematobia irritans at 24 h: 98.3%
[1]; pour-on 20 mg/kg (Group 2), Day 14
  % Efficacy vs. Haematobia irritans at 24 h: 100.0%
[1]; pour-on 20 mg/kg (Group 2), Day 22
  % Efficacy vs. Haematobia irritans at 24 h: 97.9%
[1]; pour-on 20 mg/kg (Group 2), Day 29
  % Efficacy vs. Haematobia irritans at 24 h: 96.9%
[1]; pour-on 20 mg/kg (Group 2), Day 36
  % Efficacy vs. Haematobia irritans at 24 h: 85.6%
[1]; pour-on 20 mg/kg (Group 2), until Day 13, after 5 hours post infestation
  efficacy vs. Haematobia irritans: above 93%
[1]; pour-on 20 mg/kg (Group 2), until Day 29, after 24 hours post infestation
  efficacy vs. Haematobia irritans: above 93%
[2]; pour-on 10 mg/kg (Group 3)
  % Efficacy vs. Haematobia irritans at 5 h: 93.8%
[2]; pour-on 10 mg/kg (Group 3), until Day 13, after 5 hours post infestation
  efficacy vs. Haematobia irritans: above 93%
[2]; pour-on 20 mg/kg (Group 2)
  % Efficacy vs. Haematobia irritans at 5 h: 97.7%
